Reference: patent publication EP0175304A2 (LABORATORI BALDACCI Spa, priority 1984, dated 1986)
Read-outs that look alike come from different tables or passages of the source.

Legend:
Fibrosarcoma 3T3-B77 = assay: cytostatic action on fibrosarcoma cell line; type: cell-based; conditions: compounds added in vitro in different concentrations
Description: (§1) Cytostatic action was tested on cellular lines of Fibrosarcoma 3T3-B77 obtained by conversion of 3T3 Bald/C fibroblasts by Bratislava 77 strain RSV virus and on MELANOMA B16-Fl cells.
(§2) The influence of cellular proliferation induced by the addition in vitro of the compounds in different concentrations was evaluated.

MELANOMA B16-Fl cells = assay: cytostatic action on melanoma cells; type: cell-based; conditions: compounds added in vitro in different concentrations
Description: as §1, §2

growing Swiss mouse = assay: acute toxicity (LD50 and toxic symptomatology), intraperitoneal administration; type: in vivo; conditions: ip
Description: (§3) The compounds of the invention were tested to evaluate their antiinflammatory, analgesic, antipyretic, platelet aggregation inhibition and cytostatic pharmacological effects. At the same time acute toxicity tests were made in the mouse with evaluation of LD 50 and of the symptomatology resulting from the treatment.
(§4) LD 50 and toxic symptomatology resulting from the treatment were evaluated in the growing Swiss mouse by intraperitoneal administration of the different compounds. The period of observation was extended for 10 days after administration and the value of the lethal dose was calculated by graphic interpolation of the number of deaths.
(§5) In Table II are given acute toxicity data (LD50 calculated with the graphic method) obtained in the mouse after intraperitoneal administration of the various compounds and the symptomatological observations attributable to the treatment.

[1] = as above; type: in vivo; conditions: in vivo, mouse, ip, 10 days observation, graphic interpolation; for LD50 at 10 days: Swiss
Description: as §3, §4, §5

[2] = haematic and urine rates after oral treatment (HPLC); type: in vivo; conditions: rat, 50 mg/kg os
Description: To preliminarily complete the pharmacological profile of the new series of compounds which are the object of the present invention and making reference to compound 8 a pharmacological test was performed in the rat and a subacute toxicity test was performed in the same animal species. Determination was performed with HPLC of the content in biological liquids.

platelet aggregation = platelet aggregation in vitro according to Born, inducer arachidonic acid; type: cell-based, human; conditions: inducer 1 mM arachidonic acid
Description: (§6) Inhibition of platelet aggregation was evaluated in vitro according to the Born method with various inducers (arachidonic acid, adrenalin, collagen) using as the substrate human plasma from healthy donors. For some new compounds the generation of thromboxane B2 and 6-keto-PGF according to the De Fryen method was evaluated. Platelet aggregation was studied in two successive periods: immediately after addition of the derivative and after 15 minutes of incubation at 37°C.
On some of the compounds which are the object of the present invention differentiated independently of the magnitude of the antiinflamatory, analgesic and antipyretic effect, preliminary tests in vitro were performed under the experimental conditions set forth above for the purpose of evaluating their effect on platelet reactivity.

TXB2 = assay: generation of TXB2 on whole blood after stimulation with collagen; type: cell-based; conditions: collagen 1 μg/ml
Description: as §6
The results obtained on the generation of TXB2 and 6-Keto-PGF evaluated to determine preliminarily the level of interaction on the biochemical. mechanisms underlying increased platelet reactivity are given in Table X.

growing male Wistar rat [3] = assay: antiinflammatory action, carrageenin-induced paw edema; type: in vivo; conditions: one dosage per product, 5-100 mg/kg, see column 'Dosage mg/kg ip'
male Wistar rat = assay: analgesic action, Randall and Selitto method (carrageenin-inflamed paw); type: in vivo; conditions: one dosage per product, 5-100 mg/kg, see column 'Dosage mg/kg ip'
growing male Wistar rat [4] = assay: antipyretic action, beer yeast-induced hyperthermia; type: in vivo; conditions: one dosage per product, 5-100 mg/kg, see column 'Dosage mg/kg ip'

In the case of `O=C(O)CCON=C1CCCC1` [compound 1], the “influence on cellular proliferation” value (Fibrosarcoma 3T3-B77) is reported as “significant influence on cellular proliferation”, the “influence on cellular proliferation” value (MELANOMA B16-Fl cells) is reported as “significant influence on cellular proliferation” and the Symptomatology (growing Swiss mouse) is reported as “agitation”. For the same compound, the LD50 at 240 h [1] was 200 mg/kg.
In the case of `O=C(O)CCON=C1CCCCC1` [compound 2], the “influence on cellular proliferation” value (Fibrosarcoma 3T3-B77) is reported as “significant influence on cellular proliferation”, the “influence on cellular proliferation” value (MELANOMA B16-Fl cells) is reported as “significant influence on cellular proliferation” and the Symptomatology (growing Swiss mouse) is reported as “agitation”. It also gave an LD50 at 240 h [1] of 50 mg/kg.
For `CC(C)=NOCCC(=O)O` [compound 3], the Symptomatology (growing Swiss mouse) was “passivity” and the LD50 at 240 h [1] was 300 mg/kg.
With `CCCC(CCC)=NOCCC(=O)O` [compound 4] the Symptomatology (growing Swiss mouse) was “passivity” and the LD50 at 240 h [1] was 450 mg/kg.
For `CC(C)C(=NOCCC(=O)O)C(C)C` [compound 5], the Symptomatology (growing Swiss mouse) was “agitation” and the LD50 at 10 days [1] was 400 mg/kg.
For `CC(=NOCCC(=O)O)c1ccccc1` [compound 6], the Symptomatology (growing Swiss mouse) was “passivity” and the LD50 at 240 h [1] was 600 mg/kg.
With `O=C(O)CCON=C(c1ccccc1)c1ccccc1` [compound 7] the Symptomatology (growing Swiss mouse) was “passivity” and the LD50 at 240 h [1] was 300 mg/kg.
With `O=C(O)CCO/N=C/c1ccccc1` [compound 8] the “influence on cellular proliferation” value (Fibrosarcoma 3T3-B77) was “significant influence on cellular proliferation”, the concentration at 1 h ([2]; plasma, 1 hour) was 180 µg/mL and the concentration at 2 h ([2]; plasma, 2 hours) was 145 µg/mL. For the same compound, the concentration at 3 h ([2]; plasma, 3 hours) was 142 µg/mL, the concentration at 4 h ([2]; plasma, 4 hours) was 141 µg/mL and the concentration at 6 h ([2]; plasma, 6 hours) was 140 µg/mL. The concentration at 24 h ([2]; plasma, read-out: Plasma) was 90 µg/mL, the concentration at 48 h ([2]; plasma, read-out: Plasma) was 53 µg/mL and the concentration at 8 h ([2]; urine, 8 hours) was 30 µg/mL. The concentration at 24 h ([2]; urine, read-out: Urine) was 80 µg/mL, the concentration at 48 h ([2]; urine, read-out: Urine) was 17 µg/mL and the “Percentage response variation AM” value (platelet aggregation; 5.10^-4 M) was -32.3%. The “Percentage response variation Lagt” value (platelet aggregation; 5.10^-4 M) was “+114.3%”, the “Percentage response variation AM” value (platelet aggregation; 5.10^-5 M) was -1.5% and the “Percentage response variation Lagt” value (platelet aggregation; 5.10^-5 M) was “+10.7%”. For the same compound, the “influence on cellular proliferation” value (MELANOMA B16-Fl cells) was “significant influence on cellular proliferation”, the “Generation of TXB2” value (TXB2; 5.10^-4 M, 5 min, control 41.2) was 11.7 (41.2) μg/ml and the “Generation of TXB2” value (TXB2; 5.10^-4 M, 15 min, control 26.5) was 8.6 (26.5) μg/ml. The “Generation of TXB2” value (TXB2; 5.10^-4 M, 30 min, control 36.5) was 8.5 (36.5) μg/ml, the “Generation of TXB2” value (TXB2; 5.10^-4 M, 60 min, control 65.8) was 15.1 (65.8) μg/ml and the “Generation of TXB2” value (TXB2; 5.10^-5 M, 5 min, control 41.2) was 54.3 (41.2) μg/ml. The “Generation of TXB2” value (TXB2; 5.10^-5 M, 15 min, control 26.5) was 37.5 (26.5) μg/ml, the “Generation of TXB2” value (TXB2; 5.10^-5 M, 30 min, control 36.5) was 41.4 (36.5) μg/ml and the “Generation of TXB2” value (TXB2; 5.10^-5 M, 60 min, control 65.8) was 68 (65.8) μg/ml. For the same compound, the Symptomatology (growing Swiss mouse) was “passivity” and the LD50 at 10 days [1] was 600 mg/kg.
In the case of `CC(=NOCCC(=O)O)c1ccc(Cl)cc1` [compound 11], the Symptomatology (growing Swiss mouse) is reported as “agitation” and the LD50 at 240 h [1] is reported as 250 mg/kg.
For `COc1ccc(C(C)=NOCCC(=O)O)cc1` [compound 12], the Symptomatology (growing Swiss mouse) was “passivity” and the LD50 at 240 h [1] was 850 mg/kg.
In the case of `O=C(O)CCON=C1c2ccccc2-c2ccccc21` [compound 13], the “influence on cellular proliferation” value (Fibrosarcoma 3T3-B77) is reported as “significant influence on cellular proliferation”, the “influence on cellular proliferation” value (MELANOMA B16-Fl cells) is reported as “significant influence on cellular proliferation” and the Symptomatology (growing Swiss mouse) is reported as “passivity”. For the same compound, the LD50 at 240 h [1] was 250 mg/kg.
With `O=C(O)CCON=Cc1ccc(Cl)cc1` [compound 14] the Symptomatology (growing Swiss mouse) was “passivity” and the LD50 at 240 h [1] was 350 mg/kg.
For `O=C(O)CCON=Cc1ccco1` [compound 15], the Symptomatology (growing Swiss mouse) was “negligible” and the LD50 at 240 h [1] was 1500 mg/kg.
With `COc1ccc(OC)c(C=NOCCC(=O)O)c1` [compound 16] the “Percentage response variation AM” value (platelet aggregation; 5.10^-4 M) was -13.3%, the “Percentage response variation Lagt” value (platelet aggregation; 5.10^-4 M) was “+28.0%” and the “Percentage response variation AM” value (platelet aggregation; 5.10^-5 M) was -16.1%. For the same compound, the “Percentage response variation Lagt” value (platelet aggregation; 5.10^-5 M) was -8.0%, the Symptomatology (growing Swiss mouse) was “passivity” and the LD50 at 240 h [1] was 600 mg/kg.
With `O=C(O)CCON=Cc1ccccc1Cl` [compound 17] the “Percentage response variation AM” value (platelet aggregation; 5.10^-4 M) was -79.8%, the “Percentage response variation Lagt” value (platelet aggregation; 5.10^-4 M) was “+273.9%” and the “Percentage response variation AM” value (platelet aggregation; 5.10^-5 M) was -33.3%. For the same compound, the “Percentage response variation Lagt” value (platelet aggregation; 5.10^-5 M) was “+60.0%”, the Symptomatology (growing Swiss mouse) was “passivity” and the LD50 at 240 h [1] was 400 mg/kg.
With `O=C(O)CCON=Cc1cccc(Cl)c1` [compound 18] the Symptomatology (growing Swiss mouse) was “passivity” and the LD50 at 240 h [1] was 325 mg/kg.
With `O=C(O)CCO/N=C/c1ccc2c(c1)OCO2` [compound 21] the Symptomatology (growing Swiss mouse) was “passivity” and the LD50 at 240 h [1] was 525 mg/kg.
With `O=C(O)CCO/N=C/c1cccs1` [compound 22] the “Percentage response variation AM” value (platelet aggregation; 5.10^-4 M) was “+80.5%”, the “Percentage response variation Lagt” value (platelet aggregation; 5.10^-4 M) was “+276.0%” and the “Percentage response variation AM” value (platelet aggregation; 5.10^-5 M) was “+38.3%”. For the same compound, the “Percentage response variation Lagt” value (platelet aggregation; 5.10^-5 M) was “+12.0%”, the Symptomatology (growing Swiss mouse) was “passivity” and the LD50 at 240 h [1] was 1800 mg/kg.
In the case of `O=C(O)CCO/N=C\c1ccccc1` [compound 23], the “influence on cellular proliferation” value (Fibrosarcoma 3T3-B77) is reported as “significant influence on cellular proliferation”, the “influence on cellular proliferation” value (MELANOMA B16-Fl cells) is reported as “significant influence on cellular proliferation” and the Symptomatology (growing Swiss mouse) is reported as “passivity”. The LD50 at 10 days [1] was 510 mg/kg.
With `CC(CO/N=C/c1ccccc1)C(=O)O` (stereo not drawn) [compound 24] the “influence on cellular proliferation” value (Fibrosarcoma 3T3-B77) was “significant influence on cellular proliferation”, the “Antiinflammatory action (maximum % response in first 4 hours)” value (growing male Wistar rat [3]) was 35% and the “influence on cellular proliferation” value (MELANOMA B16-Fl cells) was “significant influence on cellular proliferation”. The “Analgesic action (maximum % response in first 4 hours)” value (male Wistar rat) was 46%, the Symptomatology (growing Swiss mouse) was “passivity” and the LD50 at 240 h [1] was 750 mg/kg. The “Antipyretic action (maximum % response in first 4 hours)” value (growing male Wistar rat [4]) was 40%.
In the case of `CCC(CO/N=C/c1ccccc1)C(=O)O` (stereo not drawn) [compound 25], the “influence on cellular proliferation” value (Fibrosarcoma 3T3-B77) is reported as “significant influence on cellular proliferation”, the “Antiinflammatory action (maximum % response in first 4 hours)” value (growing male Wistar rat [3]) is reported as 35% and the “influence on cellular proliferation” value (MELANOMA B16-Fl cells) is reported as “significant influence on cellular proliferation”. For the same compound, the “Analgesic action (maximum % response in first 4 hours)” value (male Wistar rat) was 40%, the Symptomatology (growing Swiss mouse) was “passivity” and the LD50 at 240 h [1] was 800 mg/kg. The “Antipyretic action (maximum % response in first 4 hours)” value (growing male Wistar rat [4]) was 35%.
